Experimental data taken from ChEMBL document CHEMBL1155515, “Discovery of novel selective norepinephrine reuptake inhibitors: 4-[3-aryl-2,2-dioxido-2,1,3-benzothiadiazol-1(3H)-yl]-1-(methylamino)butan-2-ols (WYE-103231)” (J Med Chem, 2010).

Legend:
Assay type in all cases: ADME, organism-based
[1] = Volume of distribution at steady state in intact female rat at 2 mg/kg, iv; set-up: dose 2 mg/kg, route intravenous; details: in vivo, read-out: Vdss
[2] = AUC (0 to infinity) in ovariectomised female rat at 2 mg/kg, iv; set-up: time infinity, dose 2 mg/kg, route intravenous; details: plasma
[3] = Cmax in male rat at 10 mg/kg, po; set-up: dose 10 mg/kg, route oral; details: in vivo
[4] = Tmax in male rat at 10 mg/kg, po; set-up: dose 10 mg/kg, route oral; details: in vivo
[5] = Tmax in intact female rat at 5 mg/kg, po; set-up: dose 5 mg/kg, route oral; details: in vivo
[6] = Oral bioavailability in male rat at 10 mg/kg; details: in vivo
[7] = AUC (0 to infinity) in male rat at 10 mg/kg, po; set-up: time infinity, dose 10 mg/kg, route oral; details: plasma
[8] = Cmax in intact female rat at 5 mg/kg, po; set-up: dose 5 mg/kg, route oral; details: in vivo
[9] = AUC (0 to infinity) in intact female rat at 2 mg/kg, iv; set-up: time infinity, dose 2 mg/kg, route intravenous; details: plasma
[10] = AUC (0 to infinity) in intact female rat at 5 mg/kg, po; set-up: time infinity, dose 5 mg/kg, route oral; details: plasma
[11] = Oral bioavailability in intact female rat at 5 mg/kg; details: in vivo
[12] = Cmax in ovariectomised female rat at 5 mg/kg, po; set-up: dose 5 mg/kg, route oral; details: in vivo
[13] = Tmax in ovariectomised female rat at 5 mg/kg, po; set-up: dose 5 mg/kg, route oral; details: in vivo
[14] = AUC (0 to infinity) in ovariectomised female rat at 5 mg/kg, po; set-up: dose 5 mg/kg, route oral, time infinity; details: plasma
[15] = Oral bioavailability in ovariectomised female rat at 5 mg/kg; details: in vivo
[16] = Ratio of drug level from brain to plasma in ovariectomised female rat; details: read-out: BPR
[17] = Volume of distribution at steady state in male rat at 2 mg/kg, iv; set-up: dose 2 mg/kg, route intravenous; details: in vivo, read-out: Vdss
[18] = AUC (0 to infinity) in male rat at 2 mg/kg, iv; set-up: time infinity, dose 2 mg/kg, route intravenous; details: plasma
[19] = Volume of distribution at steady state in ovariectomised female rat at 2 mg/kg, iv; set-up: dose 2 mg/kg, route intravenous; details: in vivo, read-out: Vdss

Vd [1]: 11.3 L/kg | AUC(0-inf) [2]: 505 ng·h/mL | Cmax [3]: 154 ng/mL | Tmax [4]: 1.38 h | Tmax [5]: 0.56 h | bioavailability [6]: 100% | AUC(0-inf) [7]: 1040 ng·h/mL | Cmax [8]: 135 ng/mL | AUC(0-inf) [9]: 929 ng·h/mL | AUC(0-inf) [10]: 959 ng·h/mL | bioavailability [11]: 41.3% | Cmax [12]: 125 ng/mL | Tmax [13]: 1.63 h | AUC(0-inf) [14]: 1200 ng·h/mL | bioavailability [15]: 95.2% | Kp [16]: 3.6 | Vd [17]: 36.3 L/kg | AUC(0-inf) [18]: 199 ng·h/mL | Vd [19]: 25.3 L/kg
Compound: CNC[C@@H](O)CCN1c2ccccc2N(c2ccccc2F)S1(=O)=O
